How the values were obtained:
[1] = tested on: plasma protein; test: Plasma protein binding (rapid equilibrium device), human plasma; assay type: in vitro ADME; details: 1 µM
Protocol: mixer (Eppendorf). Acetonitrile and caffeine were dispensed using a Mantis Formulatrix. Then samples were centrifuged for 20 min at 2.270 x g at 4 °C and the supernatants were transferred to 96-well Greiner V-bottom plates. Peak areas of each compound and of the internal standard were analyzed using the MultiQuant 3.0 software (AB Sciex). Peak areas of the respective compound were normalized to the internal standard peak area and to the respective peak areas at time point 0 min: (C/D)/(A/B) with A: peak area of the compound at time point 0 min, B: peak area of the internal standard at time point 0 min, C: peak area of the compound at the respective time point, D: peak area of the internal standard at the respective time point. […]
Assessment of plasma protein binding
Plasma protein binding was assessed using the rapid equilibrium device (RED) system from ThermoFisher. Compounds were dissolved in DMSO. […]
high plasma protein binding. Compounds were diluted in murine plasma (from CD-1 mice, pooled) or in human plasma (human donors, both genders, pooled) to a final concentration of 1 µM. Dialysis buffer and plasma samples were added to the respective chambers according the manufacturer’s protocol. The RED plate was sealed with a tape and incubated at 37 °C for 2 hours at 800 rpm on an Eppendorf MixMate vortex-mixer. Then samples were withdrawn from the respective chambers. To 25 µL of each dialysis sample, 25 µL of plasma and to 25 µL of plasma sample, 25 µL of dialysis buffer was added. Then 150 µL ice-cold extraction solvent (ACN/H2O (90:10) containing 12.5 ng/mL caffeine as internal standard) was added. Samples were incubated for 30 min on ice. Then samples were centrifuged at 4 °C at 2270 x g for 10 min.
Supernatants were transferred to Greiner V-bottom 96-well plates and sealed with a tape. The […]
percentage of bound compound was calculated as follows:
(1) % free = (concentration buffer chamber / concentration plasma chamber) *100 […]
Samples were analyzed using an Agilent 1290 Infinity II HPLC system coupled to an AB Sciex QTrap 6500plus mass spectrometer. LC conditions were as follows: column: Agilent […]
Zorbax Eclipse Plus C18, 50x2.1 mm, 1.8 µm; temperature: 30 °C; injection volume: 5 µL per […]
sample; flow rate: 700 µL/min. Samples were run under acidic and buffered conditions.
Solvents for acidic conditions: A1: water + 0.1% formic acid; solvent B1: 95% acetonitrile/5% […]
H2O + 0.1% formic acid; solvents for buffered conditions: A2: 95% water + 5% acetonitrile + […]
5 mM ammonium acetate + 40 µL/L acetic acid; B2: 95% acetonitrile + 5% water + 5 mM […]
ammonium acetate + 40 µL/L acetic acid. The same gradient was applied for acidic and […]
buffered conditions: 99% A at 0 min, 99% A until 1 min, 99% - 0% A from 1 min to 4.0 min, […]
0% A until 5.0 min. Mass transitions for controls and compounds are depicted in the following […]

[2] = tested on: P. aeruginosa PAO1; test: Invasion assay of P. aeruginosa PAO1 into H1299 cells; assay type: cell-based, Pseudomonas aeruginosa
Protocol: P. aeruginosa is able to invade non‐phagocytic cells via a lipid zipper mechanism.[10] Binding of LecA to the glycosphingolipid Gb3 followed by LecA‐induced receptor clustering plays a crucial role in this process. The LecA ligand 4‐nitrophenyl α‐ D‐galactopyranoside (PNPG) has been previously shown to interfere with these events at a high concentration of 10 mM leading to a reduction of bacterial invasiveness to 30–60 % as compared to untreated bacteria (100 % invasiveness).[10, 31] For invasion assays, H1299 cells were incubated with P. aeruginosa in presence and absence of LecA inhibitors, followed by killing of extracellular bacteria with the antibiotic amikacin. Then, all intracellular bacteria were released by lysis of the human cells and viable bacteria were quantified by plating. To assess the impact of LecA inhibitors on the invasiveness, the influence of the divalent LecA inhibitor L2 on bacterial invasion into host cells was evaluated and compared to PNPG. […] In contrast, the divalent LecA ligand L2 achieved an invasion decrease to 44 % already at 100 μM (Figure 5c). L2 was thus able to reach a similar reduction of invasion at a 100‐fold lower concentration than the one needed for PNPG. […]
lectin-inhibitor solution for 24 h at 37 °C. In order to depict exactly the same position for each wound, marker lines were drawn on the bottom of the 12-well plates for each well. The samples were imaged with an EVOS microscope (PEQLAB by VWR Life Sciences, Avantor […]
Excel. […]
A chromosomally GFP-tagged Gentamicin-resistant Pseudomonas aeruginosa PAO1 strain was cultured (LB medium supplemented with 60 µg/mL Gentamicin, 37 °C, 180 rpm, 16 h) and invasion assays were performed in analogy to Eierhoff et al..[13] 1.5 x 10^4 H1299 cells per well were seeded one day prior to the invasion assay in a 96-well plate with flat bottom. An […]
overnight culture of P. aeruginosa was centrifuged for 5 min at 3000 x g, washed with PBS (- /-) and re-suspended in RPMI 1640 medium. The newly synthesized divalent LecA ligand L2 was compared to 4-nitrophenyl α-D-galactopyranoside (PNPG; Sigma-Aldrich, Chemie GmbH, Darmstadt, Germany). […]
Subsequently, cells were washed three times with DPBS and lysed by incubation with 0.25% (v/v) Triton X-100 (Carl Roth GmbH & Co. KG, Karlsruhe, Germany) for 5 min at 37 °C and 180 rpm. […] Bacterial colonies were counted the next day. […] The invasion rate was calculated as the number of intracellularly localized bacteria divided by the total number of non-treated bacteria, bacteria that were not treated with any ligands and neither amikacin, thus the number of P. aeruginosa that successfully invaded or stayed attached to the host cells. Experiments were repeated independently at least four times (N ≥ 4) and evaluated […]

## O=C(CCc1ccc(O[C@@H]2O[C@H](CO)[C@H](O)[C@H](O)[C@H]2O)cc1)Nc1ccc(CCc2ccc(NC(=O)CCc3ccc(O[C@@H]4O[C@H](CO)[C@H](O)[C@H](O)[C@H]4O)cc3)cc2S(=O)(=O)O)c(S(=O)(=O)O)c1 [Compound L2]
[1]
  PPB Human: 38.5 ± 12.4%
[2]; 100 μM L2 vs 10 mM PNPG
  Lower concentration than PNPG for similar reduction of invasion: 100 fold
[2]; 100 μM inhibitor, PAO1 into H1299 cells, N≥4
  Bacterial invasiveness (untreated bacteria 100 %): 44%

Reference: publication PMC10107299, “Neutralizing the Impact of the Virulence Factor LecA from Pseudomonas aeruginosa on Human Cells with New Glycomimetic Inhibitors” (Angewandte Chemie (International Ed. in English), 2023)
